# Patent US20150320823A1, “NOVEL USE OF RICE, RICE BRAN OR RICE HULL EXTRACT AS AN HISTAMINE RECEPTOR ANTAGONIST” (KOREA FOOD RESEARCH INSTITUTE, priority 2011, published 2015)
# Test system: GABAA-benzodiazepine receptor
# Test: Sleep-improving mechanism: pentobarbital sleep test with GABAA-benzodiazepine antagonist flumazenil (FLU)
# Type: in vivo
# Details: mouse; FLU 8 mg/kg i.p. 10 min before sample p.o. (DZP 0.5 mg/kg; BEE 500 mg/kg); pentobarbital 45 mg/kg 45 min later
compound,measurement,value
"CN1C(=O)CN=C(c2ccccc2)c2cc(Cl)ccc21 [DZP, diazepam]","effect of flumazenil (FLU) on the sleep-improving effect (sleep latency, sleep duration)",had an effect
